Here are results for 21 molecules from patent US20230061736A1, “GPR119 AGONISTS” (Kallyope, Inc., priority 2019, published 2023).

The target in this assay is T1, human GPR119 (hGPR119) (Homo sapiens, UniProt Q8TDV5).
T1 construct: expressed in transfected cells
T1 sequence (Q8TDV5 1-335): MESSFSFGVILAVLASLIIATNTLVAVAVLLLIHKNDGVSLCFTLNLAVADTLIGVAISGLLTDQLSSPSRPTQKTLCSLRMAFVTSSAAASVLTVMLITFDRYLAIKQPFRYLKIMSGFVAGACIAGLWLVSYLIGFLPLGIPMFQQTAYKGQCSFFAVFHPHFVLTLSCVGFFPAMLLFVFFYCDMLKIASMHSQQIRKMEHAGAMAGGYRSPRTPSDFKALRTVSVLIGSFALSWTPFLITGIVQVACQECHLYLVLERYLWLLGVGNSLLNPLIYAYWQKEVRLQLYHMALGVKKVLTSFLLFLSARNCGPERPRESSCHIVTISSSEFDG
The assay is described as follows: cAMP accumulation assay (cAMP Gs dynamic HTRF kit). Format: cell-based. To be noted: CHO-K1 cells stably expressing hGPR119, 4-parameter fit; for Emax: 1 h, % activity normalized to Max/Min controls; for EC50: cAMP accumulation. The essentials: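 CHO-K1 cells stably expressing hGPR119, used as assay-ready frozen stocks at ~10,000 cells/well, exposed to compound dose-response in stimulation buffer with Tween 80 for 60 min at 37° C. cAMP read by HTRF (665/620 nm ratio), normalised to Max/Min controls; EC50 and Max activity from 4-parameter fit.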

A value given as a limit tells only on which side of the number the result lay.

The molecule `COCc1cnc(N2CCC(CCCOc3ccc(CC(=O)N4CC(CNCCNC(=O)NC(CO)(CO)CO)C4)c(F)c3)CC2)nc1` [Example 81, 1-[2-[[1-[2-[2-fluoro-4-[3-[1-[5-(methoxymethyl)pyrimidin-2-yl]-4-piperidyl]propoxy]phenyl]acetyl]azetidin-3-yl]methylamino]ethyl]-3-[2-hydroxy-1,1-bis(hydroxymethyl)ethyl]urea] showed an Emax of 100 to 130%.

As for `COCc1cnc(N2CCC(CCCOc3ccc(CC(=O)N4CC(CNCC[C@@H](O)C[C@@H](O)CC(=O)O)C4)c(F)c3)CC2)nc1` [Example 82, (3R,5R)-7-[[1-[2-[2-fluoro-4-[3-[1-[5-(methoxymethyl)pyrimidin-2-yl]-4-piperidyl]propoxy]phenyl]acetyl]azetidin-3-yl]methylamino]-3,5-dihydroxy-heptanoicacid], the Emax lay in the range of 50 to 100% and the 50% effective concentration (EC50) lay within 100 to 1000 nM.

Molecule `COC(=O)c1cnc(N2CCC(CCCOc3ccc(CC(=O)N4CC(CNC[C@H](O)[C@@H](O)[C@H](O)[C@H](O)CO)C4)c(F)c3)CC2)nc1` [Example 87, methyl 2-[4-[3-[3-fluoro-4-[2-oxo-2-[3-[[[(2S,3R,4R,5R)-2,3,4,5,6-pentahydroxyhexyl]amino]methyl]azetidin-1-yl]ethyl]phenoxy]propyl]-1-piperidyl]pyrimidine-5-carboxylate] showed a maximal effect (Emax) of 100 to 130% and a 50% effective concentration (EC50) of 100 to 1000 nM.

Regarding `CCc1cnc(N2CCC(CCOCc3ccc(CC(=O)N4CC(CNC[C@@H](O)[C@H](O)[C@@H](O)[C@@H](O)CO)C4)c(F)c3)CC2)nc1` [Example 88], the maximum response (Emax) is 50 to 100% and the EC50 lay in the range of 1000 to 10000 nM.

The molecule `CCc1cnc(N2CCC(CCOCc3ccc(CC(=O)N4CC(CNC[C@H](O)[C@@H](O)[C@H](O)[C@H](O)CO)C4)cc3F)CC2)nc1` [Example 89] registered a maximum response (Emax) of 50 to 100% and an EC50 of 1000 to 10000 nM.

Molecule `O=C(Cc1ccc(COCCCC2CCN(c3ncc(Cl)cn3)CC2)cc1F)N1CC(CNC[C@H](O)[C@@H](O)[C@H](O)[C@H](O)CO)C1` [Example 90, 2-[4-[3-[1-(5-chloropyrimidin-2-yl)-4-piperidyl]propoxymethyl]-2-fluoro-phenyl]-1-[3-[[[(2S,3R,4R,5R)-2,3,4,5,6-pentahydroxyhexyl]amino]methyl]azetidin-1-yl]ethanone] came in with an Emax of 50 to 100% and an EC50 of 100 to 1000 nM.

In the case of `O=C(Cc1ccc(OCCCC2CCN(c3ncc(CO)cn3)CC2)cc1F)N1CC(CNC[C@H](O)[C@@H](O)[C@H](O)[C@H](O)CO)C1` [Example 93, 2-[2-fluoro-4-[3-[1-[5-(hydroxymethyl)pyrimidin-2-yl]-4-piperidyl]propoxy]phenyl]-1-[3-[[[(2S,3R,4R,5R)-2,3,4,5,6-pentahydroxyhexyl]amino]methyl]azetidin-1-yl]ethanone], the Emax was 50 to 100% and the EC50 lay in the range of 1000 to 10000 nM.

As to `COCc1cnc(N2CCC(CCCOc3cc(F)c(CC(=O)N4CC(CNC[C@H](O)[C@@H](O)[C@H](O)[C@H](O)CO)C4)c(F)c3)CC2)nc1` [Example 94, 2-(2,6-difluoro-4-(3-(1-(5-(methoxymethyl)pyrimidin-2-yl)piperidin-4-yl)propoxy)phenyl)-1-(3-((((2S,3R,4R,5R)-2,3,4,5,6-pentahydroxyhexyl)amino)methyl)azetidin-1-yl)ethan-1-one], the maximal response (Emax) lay within 100 to 130% and the concentration for a half-maximal effect (EC50) was 100 to 1000 nM.

In the case of `COCc1cnc(N2CCC([C@H]3C[C@H]3COCc3ccc(CC(=O)N4CC(CNC[C@H](O)[C@@H](O)[C@H](O)[C@H](O)CO)C4)c(F)c3)CC2)nc1` [Example 96, 2-[2-fluoro-4-[[(1R,2R)-2-[1-[5-(methoxymethyl)pyrimidin-2-yl]-4-piperidyl]cyclopropyl]methoxymethyl]phenyl]-1-[3-[[[(2S,3R,4R,5R)-2,3,4,5,6-pentahydroxyhexyl]amino]methyl]azetidin-1-yl]ethanone], the Emax fell in the range of 100 to 130% and the concentration giving a half-maximal response (EC50) lay within 100 to 1000 nM.

As to `O=C(Cc1ccc(OCCCC2CCN(c3ncc(Cl)cn3)CC2)cc1F)N1CC[C@@H](CNC[C@H](O)[C@@H](O)[C@H](O)[C@H](O)CO)C1` [Example 98, 2-[4-[3-[1-(5-chloropyrimidin-2-yl)-4-piperidyl]propoxy]-2-fluoro-phenyl]-1-[(3S)-3-[[[(2S,3R,4R,5R)-2,3,4,5,6-pentahydroxyhexyl]amino]methyl]pyrrolidin-1-yl]ethanone], the Emax is 100 to 130% and the 50% effective concentration (EC50) is at most 100 nM.

`O=C(Cc1ccc(OCCCC2CCN(c3ncc(Cl)cn3)CC2)cc1F)N1CC[C@@H](CNCC(O)(CO)CO)C1` [Example 99, 2-[4-[3-[1-(5-chloropyrimidin-2-yl)-4-piperidyl]propoxy]-2-fluoro-phenyl]-1-[(3S)-3-[[[2,3-dihydroxy-2-(hydroxymethyl)propyl]amino]methyl]pyrrolidin-1-yl]ethanone] displayed an Emax of at least 130% and an EC50 of at most 100 nM.

Molecule `O=C(Cc1ccc(OCCCC2CCN(c3ncc(Cl)cn3)CC2)cc1F)N1CC[C@H](CNC[C@H](O)[C@@H](O)[C@H](O)[C@H](O)CO)C1` [Example 100, 2-[4-[3-[1-(5-chloropyrimidin-2-yl)-4-piperidyl]propoxy]-2-fluoro-phenyl]-1-[(3R)-3-[[[(2S,3R,4R,5R)-2,3,4,5,6-pentahydroxyhexyl]amino]methyl]pyrrolidin-1-yl]ethanone] yielded a maximal effect (Emax) of 100 to 130% and an EC50 of at most 100 nM.

The molecule `O=C(Cc1ccc(OCCCC2CCN(c3ncc(Cl)cn3)CC2)cc1F)N1CC[C@H](CNCC(O)(CO)CO)C1` [Example 101, 2-[4-[3-[1-(5-chloropyrimidin-2-yl)-4-piperidyl]propoxy]-2-fluoro-phenyl]-1-[(3R)-3-[[[2,3-dihydroxy-2-(hydroxymethyl)propyl]amino]methyl]pyrrolidin-1-yl]ethanone] yielded a maximum response (Emax) of 100 to 130% and an EC50 of at most 100 nM.

In the case of `O=C(NC(CO)(CO)CO)[C@@H]1CCN(C(=O)Cc2ccc(OCCCC3CCN(c4ncc(Cl)cn4)CC3)cc2F)C1` [Example 102, (3R)-1-[2-[4-[3-[1-(5-chloropyrimidin-2-yl)-4-piperidyl]propoxy]-2-fluoro-phenyl]acetyl]-N-[2-hydroxy-1,1-bis(hydroxymethyl)ethyl]pyrrolidine-3-carboxamide], the Emax was 100 to 130% and the concentration giving a half-maximal response (EC50) is at most 100 nM.

With `O=C(NC(CO)(CO)CO)[C@H]1CCN(C(=O)Cc2ccc(OCCCC3CCN(c4ncc(Cl)cn4)CC3)cc2F)C1` [Example 103, (3S)-1-[2-[4-[3-[1-(5-chloropyrimidin-2-yl)-4-piperidyl]propoxy]-2-fluoro-phenyl]acetyl]-N-[2-hydroxy-1,1-bis(hydroxymethyl)ethyl]pyrrolidine-3-carboxamide], the maximal effect (Emax) fell in the range of 100 to 130% and the half-maximal effective concentration (EC50) is at most 100 nM.

As for `O=C(Cc1ccc(OCCC2CC3(CCN(c4ncc(Cl)cn4)CC3)C2)cc1F)N1CC(CNC[C@H](O)[C@@H](O)[C@H](O)[C@H](O)CO)C1` [Example 104, 2-[4-[2-[7-(5-chloropyrimidin-2-yl)-7-azaspiro[3.5]nonan-2-yl]ethoxy]-2-fluoro-phenyl]-1-[3-[[[(2S,3R,4R,5R)-2,3,4,5,6-pentahydroxyhexyl]amino]methyl]azetidin-1-yl]ethanone], the maximal effect (Emax) was in the range of 100 to 130% and the EC50 lay within 100 to 1000 nM.

On to `O=C(Cc1ccc(OCCCC2CC3(CCN(c4ncc(Cl)cn4)CC3)C2)cc1F)N1CC(CNC[C@H](O)[C@@H](O)[C@H](O)[C@H](O)CO)C1` [Example 105, 2-[4-[3-[7-(5-chloropyrimidin-2-yl)-7-azaspiro[3.5]nonan-2-yl]propoxy]-2-fluoro-phenyl]-1-[3-[[[(2S,3R,4R,5R)-2,3,4,5,6-pentahydroxyhexyl]amino]methyl]azetidin-1-yl]ethanone], for which the maximal response (Emax) was 100 to 130% and the EC50 is at most 100 nM.

`O=C(Cc1ccc(OCCCCC2CC3(CCN(c4ncc(Cl)cn4)CC3)C2)cc1F)N1CC(CNC[C@H](O)[C@@H](O)[C@H](O)[C@H](O)CO)C1` [Example 106, 2-[4-[4-[7-(5-chloropyrimidin-2-yl)-7-azaspiro[3.5]nonan-2-yl]butoxy]-2-fluoro-phenyl]-1-[3-[[[(2S,3R,4R,5R)-2,3,4,5,6-pentahydroxyhexyl]amino]methyl]azetidin-1-yl]ethanone]: the Emax lay in the range of 100 to 130% and the concentration giving a half-maximal response (EC50) lay within 100 to 1000 nM.

The molecule `O=C(Cc1ccc(COCC2CC3(CCN(c4ncc(Cl)cn4)CC3)C2)cc1F)N1CC(CNC[C@H](O)[C@@H](O)[C@H](O)[C@H](O)CO)C1` [Example 107] registered an Emax of 100 to 130% and a concentration for a half-maximal effect (EC50) of 1000 to 10000 nM.

`CCOc1cnc(N2CCC(CCCOc3ccc(CC(=O)N4CC(CC(=O)NCC(O)(CO)CO)C4)c(F)c3)CC2)nc1` [Example 108, N-[2,3-dihydroxy-2-(hydroxymethyl)propyl]-2-[1-[2-[4-[3-[1-(5-ethoxypyrimidin-2-yl)-4-piperidyl]propoxy]-2-fluoro-phenyl]acetyl]azetidin-3-yl]acetamide] had an Emax of 100 to 130% and a concentration giving a half-maximal response (EC50) of at most 100 nM.

As to `CC1(CCCCOc2ccc(CC(=O)N3CC(CNC[C@H](O)[C@@H](O)[C@H](O)[C@H](O)CO)C3)c(F)c2)CCN(c2ncc(Cl)cn2)CC1` [Example 109, 2-[4-[4-[1-(5-chloropyrimidin-2-yl)-4-methyl-4-piperidyl]butoxy]-2-fluoro-phenyl]-1-[3-[[[(2S,3R,4R,5R)-2,3,4,5,6-pentahydroxyhexyl]amino]methyl]azetidin-1-yl]ethanone], the maximum response (Emax) lay within 100 to 130% and the EC50 was in the range of 100 to 1000 nM.
